By mortality is commonly meant the share of the test organisms that died.

Holding throughout (format): in vivo
For experiment [1], the system named is corn earworm (CEW; Helicoverpa zea). Nature of the experiment: Insecticidal test for corn earworm, 128-well diet tray assay. The conditions noted are these: 144 h, 50 μg/cm2 on artificial diet, second instar larvae, six days at 25° C. The procedure:
(§1) Bioassays on corn earworm (CEW; Helicoverpa zea: Lepidoptera) were conducted using a 128-well diet tray assay. Three to five second instar CEW larvae were placed in each well (3 mL) of the diet tray that had been previously filled with 1 mL of artificial diet to which 50 μg/cm^2 of the test compound (dissolved in 50 μL of 90:10 acetone-water mixture) had been applied (to each of eight wells) and then allowed to dry. Trays were covered with a clear self-adhesive cover, and held at 25° C., 14:10 light-dark for six days. Percent mortality was recorded for the larvae in each well; activity in the eight wells was then averaged.

The test system of experiment [2] is beet armyworm (BAW; Spodoptera exigua). The experiment is described as follows: Insecticidal test for beet armyworm, 128-well diet tray assay. The conditions noted are these: 144 h, 50 μg/cm2 on artificial diet, second instar larvae, six days at 25° C. The procedure:
as §1, with “beet armyworm (BAW; Spodoptera exigua:” for “corn earworm (CEW; Helicoverpa zea:”, “BAW” for “CEW”

Experiment [3] has as its system green peach aphid (Myzus persicae). The experiment is described as follows: Insecticidal test for green peach aphid in foliar spray assay. To be noted: 72 h, 200 ppm foliar spray on cabbage seedlings, graded after three days, Abbott corrected % control, read-out: Mortality GPA 200 ppm. The protocol:
Cabbage seedlings grown in 3-inch pots, with 2-3 small (3-5 cm) true leaves, were used as test substrate. The seedlings were infested with 20-50 green peach aphids (wingless adult and nymph) one day prior to chemical application. Four pots with individual seedlings were used for each treatment. Compounds (2 mg) were dissolved in 2 mL of acetone/methanol (1:1) solvent, forming stock solutions of 1000 ppm. The stock solutions were diluted 5× with 0.025% Tween 20 in H2O to obtain the test solution at 200 ppm. A hand-held Devilbiss sprayer was used for spraying a solution to both sides of cabbage leaves until runoff. Reference plants (solvent check) were sprayed with the diluent only. Treated plants were held in a holding room for three days at approximately 25° C. and 40% relative humidity (RH) prior to grading. Evaluation was conducted by counting the number of live aphids per plant under a microscope. Insecticidal activity data, measured by using Abbott's correction formula, are presented in Table 2: Corrected % Control=100*(X−Y)/X • where X=No. of live aphids on solvent check plants • Y=No. of live aphids on treated plants

With `O=C(NC(=S)N/N=C/c1ccc(-c2ncn(-c3ccc(OC(F)(F)F)cc3)n2)cc1)c1ccc([N+](=O)[O-])cc1` [Compound 31], the mortality at 50 µg/cm2 in experiment [1] and in experiment [2] was below 50% each time. In addition, the mortality at 200 ppm in experiment [3] was below 80%.
Regarding `Fc1ccc(NC(=S)N/N=C/c2ccc(-c3ncn(-c4ccc(OC(F)(F)F)cc4)n3)cc2)cc1` [Compound 10], the mortality at 50 µg/cm2 in experiment [1] and in experiment [2] was 50 to 100% throughout. Further, the mortality at 200 ppm in experiment [3] was below 80%.
Consider `CCc1cccc(C)c1NC(=S)N/N=C/c1ccc(-c2ncn(-c3ccc(OC(F)(F)F)cc3)n2)cc1` [Compound 72], for which the mortality at 50 µg/cm2 in experiment [1] and in experiment [2] was 50 to 100% in each case. Further, the mortality at 200 ppm in experiment [3] was below 80%.
On to `CSc1ccccc1NC(=S)N/N=C/c1ccc(-c2ncn(-c3ccc(OC(F)(F)F)cc3)n2)cc1` [Compound 75], for which the mortality at 50 µg/cm2 in experiment [1] and in experiment [2] was 50 to 100% each time. Also, the mortality at 200 ppm in experiment [3] is below 80%.
On to `COc1ccc(NC(=S)N/N=C/c2ccc(-c3ncn(-c4ccc(OC(F)(F)F)cc4)n3)cc2)cc1` [Compound 28], for which the mortality at 50 µg/cm2 in experiment [1] and in experiment [2] was 50 to 100% in each case. Moreover, in experiment [3], the mortality at 200 ppm was below 80%.
`FC(F)(F)Oc1ccc(-n2cnc(-c3ccc(/C=N/NC(=S)NC4CC4)cc3)n2)cc1` [Compound 23]: the mortality at 50 µg/cm2 in experiment [1] and in experiment [2] was 50 to 100% each time. Also, the mortality at 200 ppm in experiment [3] is below 80%.
`FC(F)(F)Oc1ccc(-n2cnc(-c3ccc(/C=N/NC(=S)NCc4ccccc4)cc3)n2)cc1` [Compound 3, N-benzyl-2-(4-(1-(4-(trifluoromethoxy)phenyl)-1H-1,2,4-triazol-3-yl)benzylidene)hydrazinecarbothioamide]: the figures for the mortality at 50 µg/cm2 in experiment [1] and in experiment [2] were below 50% and 50 to 100%, respectively. In addition, in experiment [3], the mortality at 200 ppm is below 80%.
The matching figures for `N#Cc1ccccc1NC(=S)N/N=C/c1ccc(-c2ncn(-c3ccc(OC(F)(F)F)cc3)n2)cc1` [Compound 53]: 50 to 100%, 50 to 100% and below 80%.
The matching figures for `FC(F)(F)c1ccc(-n2cnc(-c3ccc(/C=N/NC(=S)NCCc4ccccn4)cc3)n2)cc1` [Compound 5]: 50 to 100%, 50 to 100% and below 80%.
Taken in the same sequence, the figures for `FC(F)(F)Oc1ccc(-n2cnc(-c3ccc(/C=N/NC(=S)Nc4ccc(Cl)cc4Cl)cc3)n2)cc1` [Compound 55] were below 50%, below 50% and below 80%.
As to `C/C(=N\NC(=S)Nc1c(C)cccc1C)c1ccc(-c2ncn(-c3ccc(OC(F)(F)F)cc3)n2)cc1` [Compound 126], the mortality at 50 µg/cm2 in experiment [1] and in experiment [2] was 50 to 100% throughout. The mortality at 200 ppm in experiment [3] is below 80%.
In the case of `Fc1cccc(F)c1NC(=S)N/N=C/c1ccc(-c2ncn(-c3ccc(OC(F)(F)F)cc3)n2)cc1` [Compound 47], the mortality at 50 µg/cm2 in experiment [1] and in experiment [2] was 50 to 100% each time. For the same compound, in experiment [3], the mortality at 200 ppm is below 80%.
Turning to `CCc1cccc(CC)c1NC(=S)N/N=C/c1ccc(-c2ncn(-c3ccc(OC(F)(F)F)cc3)n2)cc1` [Compound 76], the mortality at 50 µg/cm2 in experiment [1] and in experiment [2] was 50 to 100% throughout. Moreover, the mortality at 200 ppm in experiment [3] was below 80%.
For `CN(C)c1ccccc1CNC(=S)N/N=C/c1ccc(-c2ncn(-c3ccc(OC(F)(F)F)cc3)n2)cc1` [Compound 39], the mortality at 50 µg/cm2 in experiment [1] and in experiment [2] was 50 to 100% each time. In addition, the mortality at 200 ppm in experiment [3] is below 80%.
Consider `COC(=O)C1CC(c2ccc(/C=N/NC(=S)Nc3c(C)cc(OC)cc3C)cc2)=NN1c1ccc(OC(F)(F)F)cc1` (stereo not drawn) [Compound 132], for which the mortality at 50 µg/cm2 in experiment [1] and in experiment [2] was 50 to 100% throughout. Also, the mortality at 200 ppm in experiment [3] is below 80%.
Regarding `COc1ccc(NC(=S)N/N=C(\C)c2ccc(-c3ncn(-c4ccc(OC(F)(F)F)cc4)n3)cc2)c(C)c1` [Compound 109], the mortality at 50 µg/cm2 in experiment [1] and in experiment [2] was 50 to 100% throughout. Further, in experiment [3], the mortality at 200 ppm was below 80%.
On to `O=C(N/N=C/c1ccc(-c2ncn(-c3ccc(OC(F)(F)F)cc3)n2)cc1)Nc1c(Cl)cccc1Cl` [Compound 120], for which the mortality at 50 µg/cm2 in experiment [1] and in experiment [2] was 50 to 100% each time. Besides, the mortality at 200 ppm in experiment [3] was below 80%.
Turning to `Fc1c(F)c(F)c(NC(=S)N/N=C/c2ccc(-c3ncn(-c4ccc(OC(F)(F)F)cc4)n3)cc2)c(F)c1F` [Compound 64], the mortality at 50 µg/cm2 in experiment [1] and in experiment [2] was 50 to 100% throughout. The mortality at 200 ppm in experiment [3] was below 80%.
`COc1ccc(NC(=S)N/N=C/c2ccc(-c3ncn(-c4ccc(OC(F)(F)F)cc4)n3)cc2)c(OC)c1` [Compound 45]: the mortality at 50 µg/cm2 in experiment [1] and in experiment [2] was 50 to 100% throughout. For the same compound, the mortality at 200 ppm in experiment [3] is below 80%.
For the compound `C=CCNC(=S)N/N=C/c1ccc(-c2ncn(-c3ccc(OC(F)(F)F)cc3)n2)cc1` [Compound 12], the mortality at 50 µg/cm2 in experiment [1] and in experiment [2] was 50 to 100% in each case. Besides, the mortality at 200 ppm in experiment [3] is below 80%.
As for `CCOc1ccc(NC(=S)N/N=C/c2ccc(-c3ncn(-c4ccc(OC(F)(F)F)cc4)n3)cc2)cc1` [Compound 58], the mortality at 50 µg/cm2 in experiment [1] and in experiment [2] was 50 to 100% in each case. Further, the mortality at 200 ppm in experiment [3] was below 80%.
Regarding `Cc1ccccc1NC(=S)N/N=C/c1ccc(-c2ncn(-c3ccc(OC(F)(F)F)cc3)n2)cc1` [Compound 71], the mortality at 50 µg/cm2 in experiment [1] and in experiment [2] was 50 to 100% in each case. Besides, the mortality at 200 ppm in experiment [3] is below 80%.
For the compound `CN(C)c1ccc(NC(=S)N/N=C/c2ccc(-c3ncn(-c4ccc(OC(F)(F)F)cc4)n3)cc2)c(C(F)(F)F)c1` [Compound 49], the mortality at 50 µg/cm2 in experiment [1] and in experiment [2] was 50 to 100% throughout. In experiment [3], the mortality at 200 ppm was below 80%.
As for `FC(F)(F)Oc1ccc(-n2cnc(-c3ccc(/C=N/NC(=S)Nc4ccc(Cl)cn4)cc3)n2)cc1` [Compound 59], the mortality at 50 µg/cm2 in experiment [1] and in experiment [2] was below 50% each time. The mortality at 200 ppm in experiment [3] was below 80%.
Turning to `CS(=O)(=O)c1ccccc1NC(=S)N/N=C/c1ccc(-c2ncn(-c3ccc(OC(F)(F)F)cc3)n2)cc1` [Compound 52], the mortality at 50 µg/cm2 in experiment [1] and in experiment [2] was 50 to 100% in each case. The mortality at 200 ppm in experiment [3] is below 80%.
As for `CN(C)CCCNC(=S)N/N=C/c1ccc(-c2ncn(-c3ccc(OC(F)(F)F)cc3)n2)cc1` [Compound 19], the mortality at 50 µg/cm2 in experiment [1] and in experiment [2] was below 50% each time. Further, the mortality at 200 ppm in experiment [3] is below 80%.
`FC(F)(F)Oc1ccc(-n2cnc(-c3ccc(/C=N/NC(=S)Nc4ccc(Cl)cc4)cc3)n2)cc1` [Compound 56]: the mortality at 50 µg/cm2 in experiment [1] and in experiment [2] was 50 to 100% each time. For the same compound, the mortality at 200 ppm in experiment [3] is below 80%.
As to `FC(F)(F)c1ccc(-c2cn(-c3ccc(/C=N/NC(=S)Nc4c(Cl)cccc4Cl)cc3)cn2)cc1` [Compound 70], the mortality at 50 µg/cm2 in experiment [1] and in experiment [2] was 50 to 100% each time. The mortality at 200 ppm in experiment [3] was below 80%.
With `FC(F)(F)Oc1ccc(-n2cnc(-c3ccc(/C=N/NC(=S)Nc4ccccc4Cl)cc3)n2)cc1` [Compound 54], the mortality at 50 µg/cm2 in experiment [1] and in experiment [2] was below 50% in each case. Further, the mortality at 200 ppm in experiment [3] was below 80%.
As to `FC(F)(F)Oc1ccc(-n2cnc(-c3ccc(/C=N/NC(=S)NCCc4ccccn4)cc3)n2)cc1` [Compound 6], the mortality at 50 µg/cm2 in experiment [1] and in experiment [2] was 50 to 100% throughout. Also, the mortality at 200 ppm in experiment [3] was below 80%.
In the case of `Cc1cccc(C)c1NC(=S)N/N=C/c1ccc(-c2ncn(-c3ccc(OC(F)(F)F)cc3)n2)cc1` [Compound 78], the mortality at 50 µg/cm2 in experiment [1] and in experiment [2] was 50 to 100% throughout. Further, the mortality at 200 ppm in experiment [3] was below 80%.
Consider `COc1cc(C)c(NC(=S)N/N=C/c2ccc(-c3ncn(-c4ccc(OC(F)(F)F)cc4)n3)cc2)c(C)n1` [Compound 129], for which the mortality at 50 µg/cm2 in experiment [1] and in experiment [2] was 50 to 100% throughout. The mortality at 200 ppm in experiment [3] was below 80%.
With `Fc1ccccc1CNC(=S)N/N=C/c1ccc(-c2ncn(-c3ccc(OC(F)(F)F)cc3)n2)cc1` [Compound 22], the mortality at 50 µg/cm2 in experiment [1] and in experiment [2] was 50 to 100% throughout. Also, the mortality at 200 ppm in experiment [3] was below 80%.

The values are drawn from patent US8680269B2, “Pesticidal compositions” (Dow AgroSciences, LLC., priority 2009, dated 2014).
